Test results from article PMC12724303 (Journal of Virology, 2025).
Like-named read-outs stand apart in the source and are kept apart here.

Tests used:
Vero E6/TMPRSS2 cells [1] = assay type: cell-based
Protocol: A solution of each CyD derivative, prepared in DMEM supplemented with 10% FBS and 1 mg/mL G-418, was filtered and sterilized using a DISMIC-25cs 0.45 µm filter. […] After 24 h, the cells were treated with CyD derivatives and further incubated for 72 h in a humidified incubator at 37°C with 5% CO₂. Cytotoxicity was assessed under a microscope.

[2] = system: JEV Beijing-1 variant (procoagulant activity); assay type: biochemical, Japanese encephalitis virus
in vitro = settings: African green monkey
red blood cells = settings: cited from earlier work
[3] = target: SARS-CoV-2 spike protein-ACE2 binding (UniProt P0DTC2+Q9BYF1)
Vero cells = assay type: cell-based; settings: CCK-8, tested up to 100 mM
Vero E6/TMPRSS2 cells [4] = settings: CCK-8, tested up to 100 mM
Pichinde virus = settings: guinea pigs infected with Pichinde virus, treated 6-7 days after infection; cited from earlier work
[5] = Vero E6/TMPRSS2 cells, 72 h, microscope, twofold dilutions with 10 mM as highest concentration

SARS-CoV-2 spike protein-ACE2 binding, sequence (Q9BYF1 18-740, one chain of several): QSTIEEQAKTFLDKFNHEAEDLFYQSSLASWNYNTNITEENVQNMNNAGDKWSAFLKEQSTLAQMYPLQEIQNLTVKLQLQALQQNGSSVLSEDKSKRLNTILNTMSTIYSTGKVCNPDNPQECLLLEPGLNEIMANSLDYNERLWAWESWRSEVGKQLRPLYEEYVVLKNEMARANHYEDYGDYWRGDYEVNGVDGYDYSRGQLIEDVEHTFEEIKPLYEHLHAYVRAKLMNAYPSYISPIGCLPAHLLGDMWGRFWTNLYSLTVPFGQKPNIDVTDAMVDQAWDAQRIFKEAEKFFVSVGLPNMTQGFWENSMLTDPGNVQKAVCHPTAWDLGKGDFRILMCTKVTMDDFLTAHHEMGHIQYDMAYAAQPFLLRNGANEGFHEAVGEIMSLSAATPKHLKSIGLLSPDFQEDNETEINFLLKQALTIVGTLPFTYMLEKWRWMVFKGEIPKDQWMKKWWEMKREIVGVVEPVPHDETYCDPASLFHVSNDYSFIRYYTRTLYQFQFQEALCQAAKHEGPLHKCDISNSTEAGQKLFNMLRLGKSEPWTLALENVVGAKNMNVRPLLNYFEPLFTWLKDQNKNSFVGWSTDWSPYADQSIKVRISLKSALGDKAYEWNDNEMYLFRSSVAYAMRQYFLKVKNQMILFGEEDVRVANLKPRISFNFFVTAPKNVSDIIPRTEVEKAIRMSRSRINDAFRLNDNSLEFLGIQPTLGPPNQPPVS

In the case of hydroxypropyl-α-cyclodextrin [HP-α-CyD], the Highest non-toxic concentration (Vero E6/TMPRSS2 cells [1]; [5]) is reported as no less than 10.0 mM.

In the case of `COC[C@H]1O[C@@H]2O[C@H]3[C@H](O)[C@@H](OC)[C@@H](O[C@H]4[C@H](O)[C@@H](OC)[C@@H](O[C@H]5[C@H](O)[C@@H](OC)[C@@H](O[C@H]6[C@H](O)[C@@H](OC)[C@@H](O[C@H]7[C@H](O)[C@@H](OC)[C@@H](O[C@H]8[C@H](O)[C@@H](OC)[C@@H](O[C@H]1[C@H](O)[C@H]2OC)O[C@@H]8COC)O[C@@H]7COC)O[C@@H]6COC)O[C@@H]5COC)O[C@@H]4COC)O[C@@H]3COC` [DM-β-CyD, 2,6-di-O-methyl-β-cyclodextrin], the Highest non-toxic concentration (Vero E6/TMPRSS2 cells [1]; African green monkey) is reported as 5.00 mM, the “effect on clotting time (JEV procoagulant activity)” value (“effect on clotting time” below) ([2]; 5 mM, 37°C) is reported as “had no effect” and the CC50 (in vitro) is reported as 5.74 mM. For the same molecule, the “concentration causing 50% hemolysis” value (red blood cells) was 1 mM.

`OC[C@H]1O[C@@H]2O[C@H]3[C@H](O)[C@@H](O)[C@@H](O[C@H]4[C@H](O)[C@@H](O)[C@@H](O[C@H]5[C@H](O)[C@@H](O)[C@@H](O[C@H]6[C@H](O)[C@@H](O)[C@@H](O[C@H]7[C@H](O)[C@@H](O)[C@@H](O[C@H]8[C@H](O)[C@@H](O)[C@@H](O[C@H]1[C@H](O)[C@H]2O)O[C@@H]8CO)O[C@@H]7CO)O[C@@H]6CO)O[C@@H]5CO)O[C@@H]4CO)O[C@@H]3CO` [β-CyD] showed a Highest non-toxic concentration (Vero E6/TMPRSS2 cells [1]; [5]) of no less than 10.0 mM.

With `COC[C@H]1O[C@@H]2O[C@H]3[C@H](O)[C@@H](OC)[C@@H](O[C@H]4[C@H](O)[C@@H](OC)[C@@H](O[C@H]5[C@H](O)[C@@H](OC)[C@@H](O[C@H]6[C@H](O)[C@@H](OC)[C@@H](O[C@H]7[C@H](O)[C@@H](OC)[C@@H](O[C@H]1[C@H](O)[C@H]2OC)O[C@@H]7COC)O[C@@H]6COC)O[C@@H]5COC)O[C@@H]4COC)O[C@@H]3COC` [DM-α-CyD] the Highest non-toxic concentration (Vero E6/TMPRSS2 cells [1]; [5]) was 2.50 mM.

Work on `OC[C@H]1O[C@@H]2O[C@H]3[C@H](O)[C@@H](O)[C@@H](O[C@H]4[C@H](O)[C@@H](O)[C@@H](O[C@H]5[C@H](O)[C@@H](O)[C@@H](O[C@H]6[C@H](O)[C@@H](O)[C@@H](O[C@H]7[C@H](O)[C@@H](O)[C@@H](O[C@H]1[C@H](O)[C@H]2O)O[C@@H]7CO)O[C@@H]6CO)O[C@@H]5CO)O[C@@H]4CO)O[C@@H]3CO` [α-CyD] yielded a Highest non-toxic concentration (Vero E6/TMPRSS2 cells [1]; [5]) of 5.00 mM.

For `COC[C@H]1O[C@@H]2O[C@H]3[C@H](OC(C)=O)[C@@H](OC)[C@@H](O[C@H]4[C@H](OC(C)=O)[C@@H](OC)[C@@H](O[C@H]5[C@H](OC(C)=O)[C@@H](OC)[C@@H](O[C@H]6[C@H](OC(C)=O)[C@@H](OC)[C@@H](O[C@H]7[C@H](OC(C)=O)[C@@H](OC)[C@@H](O[C@H]8[C@H](OC(C)=O)[C@@H](OC)[C@@H](O[C@H]1[C@H](OC(C)=O)[C@H]2OC)O[C@@H]8COC)O[C@@H]7COC)O[C@@H]6COC)O[C@@H]5COC)O[C@@H]4COC)O[C@@H]3COC` [DMA-β-CyD], the “effect on spike protein-ACE2 binding” value [3] was “did not interfere with this interaction”, the “effect on clotting time” value ([2]; 10 mM, 28°C) was “clotting time remained similar to that of the control” and the “effect on clotting time” value ([2]; 10 mM, 37°C) was “prolonged”. The CC50 (Vero cells) was no less than 100 mM, the CC50 (Vero E6/TMPRSS2 cells [4]) was no less than 100 mM and the hemolysis (red blood cells; at 100 mM) was “did not induce hemolysis”.

`OC[C@H]1O[C@@H]2O[C@H]3[C@H](O)[C@@H](O)[C@@H](O[C@H]4[C@H](O)[C@@H](O)[C@@H](O[C@H]5[C@H](O)[C@@H](O)[C@@H](O[C@H]6[C@H](O)[C@@H](O)[C@@H](O[C@H]7[C@H](O)[C@@H](O)[C@@H](O[C@H]8[C@H](O)[C@@H](O)[C@@H](O[C@H]9[C@H](O)[C@@H](O)[C@@H](O[C@H]1[C@H](O)[C@H]2O)O[C@@H]9CO)O[C@@H]8CO)O[C@@H]7CO)O[C@@H]6CO)O[C@@H]5CO)O[C@@H]4CO)O[C@@H]3CO` [γ-CyD] showed a Highest non-toxic concentration (Vero E6/TMPRSS2 cells [1]; [5]) of 2.50 mM.

In the case of `COC[C@H]1O[C@@H]2O[C@H]3[C@H](OC)[C@@H](OC)[C@@H](O[C@H]4[C@H](OC)[C@@H](OC)[C@@H](O[C@H]5[C@H](OC)[C@@H](OC)[C@@H](O[C@H]6[C@H](OC)[C@@H](OC)[C@@H](O[C@H]7[C@H](OC)[C@@H](OC)[C@@H](O[C@H]8[C@H](OC)[C@@H](OC)[C@@H](O[C@H]1[C@H](OC)[C@H]2OC)O[C@@H]8COC)O[C@@H]7COC)O[C@@H]6COC)O[C@@H]5COC)O[C@@H]4COC)O[C@@H]3COC` [TM-β-CyD], the Highest non-toxic concentration (Vero E6/TMPRSS2 cells [1]; [5]) is reported as 1.25 mM.

B1: bavituximab (antibody, chains of the INN, looked up, V domains shown)
VH: EVQLQQSGPELEKPGASVKLSCKASGYSFTGYNMNWVKQSHGKSLEWIGHIDPYYGDTSYNQKFRGKATLTVDKSSSTAYMQLKSLTSEDSAVYYCVKGGYYGHWYFDVWGAGTTVTVSS
VL: DIQMTQSPSSLSASLGERVSLTCRASQDIGSSLNWLQQGPDGTIKRLIYATSSLDSGVPKRFSGSRSGSDYSLTISSLESEDFVDYYCLQYVSSPPTFGAGTKLELK
For B1, the animals survived (Pichinde virus) is listed as 50%.
